Laboratory results as given in ChEMBL document CHEMBL1909046, “DrugMatrix in vitro pharmacology data”.
pIC50, pKi: −log10 of the molar value.

How the values were obtained:
Melanocortin receptor 3 = Melanocortin receptor 3 (Homo sapiens, UniProt P41968); format: cell membranes, Membrane; details: hek293; note: in other assays of this panel Not Active means under 50% inhibition at 10 µM
[1] = target: Receptor tyrosine-protein kinase erbB-2 (Homo sapiens, UniProt P04626); assay: biochemical; format: cell-based, Insect cells; details: for IC50 / Ki: insect cells;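 for all read-outs here: inhibition of HER2 kinase enzyme activity, measured with Poly(Glu:Tyr) as the phosphorylation substrate; in other assays of this panel Not Active means under 50% inhibition at 10 µM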
[2] = target: T1, 3-hydroxy-3-methylglutaryl-coenzyme A reductase (Homo sapiens, UniProt P04035); parameters: species or system Escherichia coli;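 note: enzyme inhibition assay of HMG-CoA reductase using radiolabeled [14C]HMG-CoA as substrate; in other assays of this panel Not Active means under 50% inhibition at 10 µM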
T1 sequence (P04035 whole entry): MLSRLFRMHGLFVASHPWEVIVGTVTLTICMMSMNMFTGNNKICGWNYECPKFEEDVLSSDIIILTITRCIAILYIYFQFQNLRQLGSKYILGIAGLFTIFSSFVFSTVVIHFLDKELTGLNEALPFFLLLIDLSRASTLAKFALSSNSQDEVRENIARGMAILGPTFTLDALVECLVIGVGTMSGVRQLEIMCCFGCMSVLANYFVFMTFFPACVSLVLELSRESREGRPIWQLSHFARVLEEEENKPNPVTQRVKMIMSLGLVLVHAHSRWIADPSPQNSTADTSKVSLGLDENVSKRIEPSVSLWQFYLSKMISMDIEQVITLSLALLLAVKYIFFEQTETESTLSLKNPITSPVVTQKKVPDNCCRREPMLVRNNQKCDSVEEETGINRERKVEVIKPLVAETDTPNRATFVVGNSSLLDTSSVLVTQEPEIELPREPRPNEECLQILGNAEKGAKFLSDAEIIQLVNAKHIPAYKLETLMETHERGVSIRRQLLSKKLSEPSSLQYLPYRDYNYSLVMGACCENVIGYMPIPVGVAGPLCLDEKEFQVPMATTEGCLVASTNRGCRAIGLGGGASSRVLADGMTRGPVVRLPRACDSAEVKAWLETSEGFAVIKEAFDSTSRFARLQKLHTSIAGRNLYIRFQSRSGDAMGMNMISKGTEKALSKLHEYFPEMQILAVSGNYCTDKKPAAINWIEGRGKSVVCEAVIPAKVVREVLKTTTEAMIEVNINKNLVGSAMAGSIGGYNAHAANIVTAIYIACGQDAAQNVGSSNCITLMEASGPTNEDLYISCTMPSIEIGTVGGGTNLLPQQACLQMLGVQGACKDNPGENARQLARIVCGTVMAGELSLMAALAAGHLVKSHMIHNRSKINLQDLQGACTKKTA

[3] = target: Epidermal growth factor receptor (Homo sapiens, UniProt P00533); assay: DRUGMATRIX: Protein Tyrosine Kinase, EGF Receptor enzyme inhibition (substrate: Poly(Glu:Tyr)); format: cell-based, Insect cells; details: Not Active = under 50% inhibition at 10 µM; for pIC50: read-out: IC50
Progesterone receptor = target: T2, Progesterone receptor (Bos taurus, UniProt Q690N0); assay: DRUGMATRIX: Progesterone radioligand binding (ligand: [3H] R-5020); format: tissue-based, Uterus; details: Not Active = under 50% inhibition at 10 µM
T2 sequence (Q690N0 whole entry): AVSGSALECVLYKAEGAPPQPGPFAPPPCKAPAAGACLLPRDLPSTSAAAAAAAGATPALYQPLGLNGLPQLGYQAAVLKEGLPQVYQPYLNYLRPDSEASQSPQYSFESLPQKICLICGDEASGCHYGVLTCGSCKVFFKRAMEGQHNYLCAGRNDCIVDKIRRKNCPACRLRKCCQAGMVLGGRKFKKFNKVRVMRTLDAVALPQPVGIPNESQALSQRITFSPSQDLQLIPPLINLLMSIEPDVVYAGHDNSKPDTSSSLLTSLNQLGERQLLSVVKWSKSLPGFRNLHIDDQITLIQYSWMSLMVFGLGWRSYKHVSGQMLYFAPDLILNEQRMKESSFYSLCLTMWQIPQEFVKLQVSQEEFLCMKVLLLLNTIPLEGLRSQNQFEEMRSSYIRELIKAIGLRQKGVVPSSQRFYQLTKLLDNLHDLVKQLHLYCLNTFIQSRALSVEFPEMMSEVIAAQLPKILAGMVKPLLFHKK

[4] = target: 5-hydroxytryptamine receptor 2B (Homo sapiens, UniProt P41595); format: cell membranes, CHO-K1, Membrane; details: for IC50 / Ki: cho-k1; for pIC50: read-out: IC50; for pKi: read-out: Ki; for all read-outs here: in other assays of this panel Not Active means under 50% inhibition at 10 µM
5-hydroxytryptamine receptor 2B, sequence (P41595 whole entry): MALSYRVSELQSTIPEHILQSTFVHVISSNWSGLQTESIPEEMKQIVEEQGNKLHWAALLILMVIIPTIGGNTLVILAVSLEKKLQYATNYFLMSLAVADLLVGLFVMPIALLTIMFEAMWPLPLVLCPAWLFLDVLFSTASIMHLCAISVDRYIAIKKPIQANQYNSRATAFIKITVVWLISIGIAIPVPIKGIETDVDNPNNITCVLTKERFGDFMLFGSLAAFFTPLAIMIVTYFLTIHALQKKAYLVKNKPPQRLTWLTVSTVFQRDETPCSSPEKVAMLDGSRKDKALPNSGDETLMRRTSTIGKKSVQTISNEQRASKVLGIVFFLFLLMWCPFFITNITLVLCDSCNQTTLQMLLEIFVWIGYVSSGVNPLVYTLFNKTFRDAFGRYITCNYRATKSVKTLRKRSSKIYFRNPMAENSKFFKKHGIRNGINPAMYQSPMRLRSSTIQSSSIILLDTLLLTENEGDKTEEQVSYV

Melanocortin receptor 3, sequence (P41968 whole entry): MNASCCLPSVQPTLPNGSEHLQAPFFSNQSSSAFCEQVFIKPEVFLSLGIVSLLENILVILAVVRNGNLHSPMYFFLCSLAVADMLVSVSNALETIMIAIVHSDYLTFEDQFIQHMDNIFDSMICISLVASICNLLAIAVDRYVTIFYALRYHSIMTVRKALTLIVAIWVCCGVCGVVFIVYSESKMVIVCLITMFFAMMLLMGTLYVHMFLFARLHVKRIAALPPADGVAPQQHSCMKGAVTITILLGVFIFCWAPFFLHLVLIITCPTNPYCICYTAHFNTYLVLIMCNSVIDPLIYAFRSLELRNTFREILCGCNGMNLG

Row | Molecule | IC50 (Melanocortin receptor 3) | IC50 [1] | IC50 [2] | IC50 ([3]; insect cells) | IC50 (Progesterone receptor) | IC50 [4] | other results
1 | CCCCC(=O)N(Cc1ccc(-c2ccccc2-c2nnn[nH]2)cc1)[C@H](C(=O)O)C(C)C | Not Active | Not Active | Not Active | Not Active | Not Active | Not Active | 
2 | O=C(O)COc1ccc(C(=O)c2cccs2)c(Cl)c1Cl | Not Active | Not Active | Not Active | Not Active | Not Active | Not Active | 
3 | CN1[C@@H]2CC[C@H]1C[C@@H](OC(c1ccccc1)c1ccccc1)C2 [BENZTROPINE] | Not Active | Not Active | Not Active | Not Active | Not Active |  | pIC50 [4]: 6.70; pKi [4]: 6.90
4 | C[C@@](Cc1ccc(O)c(O)c1)(NN)C(=O)O.O [CARBIDOPA] | Not Active | Not Active | Not Active | Not Active | Not Active | Not Active | 
5 | CN1CCN(C2=Nc3cc(Cl)ccc3Nc3ccccc32)CC1 [CLOZAPINE] | Not Active | Not Active | Not Active | Not Active | Not Active |  | 
6 | CC(C)NC[C@@H](O)COc1cccc2ccccc12 [DEXPROPRANOLOL] | Not Active | Not Active | Not Active | Not Active | Not Active |  | 
7 | CC(C)NC[C@H](O)COc1cccc2ccccc12 [LEVOPROPRANOLOL] | Not Active | Not Active | Not Active | Not Active | Not Active |  | 
8 | O=C(O)CCCCC1CCSS1 (stereo not drawn) [LIPOIC ACID, ALPHA] | Not Active | Not Active | Not Active | Not Active | Not Active | Not Active | 
9 | CN(C)C(=O)C(CCN1CCC(O)(c2ccc(Cl)cc2)CC1)(c1ccccc1)c1ccccc1 [LOPERAMIDE] | Not Active | Not Active | Not Active | Not Active | Not Active |  | pIC50 [4]: 5.39; pKi [4]: 5.58
10 | Clc1ccc(COC(Cn2ccnc2)c2ccc(Cl)cc2Cl)c(Cl)c1 (configuration not stated) [MICONAZOLE] |  |  | Not Active |  |  |  | pIC50 ([1]; read-out: IC50): 4.56; pIC50 [3]: 4.53; pIC50 (Progesterone receptor; read-out: IC50): 4.83; pKi (Progesterone receptor; read-out: Ki): 5.71; pIC50 [4]: 5.26; pKi [4]: 5.45
11 | Oc1ccc2c3c1O[C@H]1[C@@H](O)CC[C@@]4(O)[C@@H](C2)N(CC2CCC2)CC[C@]314 [NALBUPHINE] | Not Active | Not Active | Not Active | Not Active | Not Active | Not Active | 
12 | C[C@]12C=CC(=O)C=C1CC[C@@H]1[C@@H]2C(=O)C[C@@]2(C)[C@H]1CC[C@]2(O)C(=O)CO [PREDNISONE] | Not Active | Not Active | Not Active | Not Active | Not Active | Not Active | 
13 | OCCOCCN1CCN(C2=Nc3ccccc3Sc3ccccc32)CC1 [QUETIAPINE] | Not Active | Not Active | Not Active | Not Active | Not Active |  | 
14 | COC(=O)[C@H]1[C@H]2C[C@@H]3c4[nH]c5cc(OC)ccc5c4CCN3C[C@H]2C[C@@H](OC(=O)c2cc(OC)c(OC)c(OC)c2)[C@@H]1OC [RESERPINE] | Not Active | Not Active | Not Active | Not Active | Not Active | Not Active | 
15 | O=C(O)c1ccccc1O [SALICYLIC ACID] | Not Active | Not Active | Not Active | Not Active | Not Active | Not Active | 
16 | C[S+]([O-])c1ccc(-c2nc(-c3ccncc3)c(-c3ccc(F)cc3)[nH]2)cc1 (configuration not stated) [SB-203580] | Not Active |  | Not Active |  | Not Active | Not Active | 
17 | CC1CCC(NC(=O)N(CCCl)N=O)CC1 (configuration not stated) [SEMUSTINE] | Not Active | Not Active | Not Active | Not Active | Not Active | Not Active | 
18 | O=C1C[C@@H]2OCC=C3CN4CC[C@]56c7ccccc7N1[C@H]5[C@H]2[C@H]3C[C@H]46 [STRYCHNINE] | Not Active | Not Active | Not Active | Not Active | Not Active | Not Active | 
19 | C[N+](C)(C)CCOC(=O)CCC(=O)OCC[N+](C)(C)C.[Cl-].[Cl-] [SUCCINYLCHOLINE CHLORIDE] | Not Active | Not Active | Not Active | Not Active | Not Active | Not Active | 
20 | Nc1ccc(S(=O)(=O)NC(=O)c2ccccc2)cc1 [SULFABENZAMIDE] | Not Active | Not Active | Not Active | Not Active | Not Active | Not Active | 
21 | CCCCCCCCNC(C)C(O)c1ccc(SC(C)C)cc1 (configuration not stated) [SULOCTIDIL] | Not Active | Not Active | Not Active |  | Not Active |  | pIC50 [3]: 6.10; pIC50 [4]: 6.03; pKi [4]: 6.22
22 | O=c1[nH]c(=O)n(C2CCCO2)cc1F (configuration not stated) [TEGAFUR] | Not Active | Not Active | Not Active | Not Active | Not Active | Not Active | 
23 | CC(=N)S [THIOACETAMIDE] | Not Active | Not Active | Not Active | Not Active | Not Active | Not Active | 
24 | Cc1ccc(C(=O)c2ccc(CC(=O)O)n2C)cc1 [TOLMETIN] | Not Active | Not Active | Not Active | Not Active | Not Active | Not Active | 
25 | CC(=O)OCC(COC(C)=O)OC(C)=O [TRIACETIN] | Not Active | Not Active | Not Active | Not Active | Not Active | Not Active | 
26 | CN1CCN(CCCN2c3ccccc3Sc3ccc(C(F)(F)F)cc32)CC1 [TRIFLUOPERAZINE] | Not Active | Not Active | Not Active | Not Active | Not Active | Not Active | 
27 | TRANSPLATIN | Not Active | Not Active | Not Active |  | Not Active | Not Active | Ki (Melanocortin receptor 3): Not Active; Ki [1]: Not Active; Ki [2]: Not Active; pIC50 ([3]; insect cells): 5.97; Ki (Progesterone receptor): Not Active; Ki [4]: Not Active
28 | ZIRCONIUM(IV) CHLORIDE | Not Active | Not Active | Not Active | Not Active | Not Active | Not Active | Ki (Melanocortin receptor 3): Not Active; Ki [1]: Not Active; Ki [2]: Not Active; Ki ([3]; insect cells): Not Active; Ki (Progesterone receptor): Not Active; Ki [4]: Not Active
